Reference: paper PMC5667506, “Potent and selective inhibition of SH3 domains with dirhodium metalloinhibitors” (Chemical Science, 2015)
pKd: −log10 of the molar value.

Columns and labels:
Lyn SH3 H96A mutant = target: T1, Lyn SH3 H96A mutant (Homo sapiens, UniProt P07948, H96A); test: Binding to Lyn SH3 H96A mutant; details: read-out: affinity
T1 construct: The lyn SH3 domain was amplified by PCR using Phusion DNA polymerase; GST (N, cleaved yes); made in house; host or cells: E. coli BL21 (DE3)
T1 sequence (P07948 63-123 H96A limits assumed): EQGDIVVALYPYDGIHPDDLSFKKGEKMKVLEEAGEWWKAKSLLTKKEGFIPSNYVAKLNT
Protocol: The remarkable 6 nM affinity, far stronger than that of any reported non-protein ligand for SH3 domains, led us to study the structural basis of the observed affinity. […] The H78A and H96A double mutant binds much more weakly (>5 μM). […] That the majority of the stabilization energy comes from the first histidine coordination is consistent with the negative cooperativity generally seen for axial coordination to rhodium(II): a second coordination in solution is roughly two orders of magnitude less favorable.[40]–[43]
Abl SH3 domain preparation. The abl SH3 domain was amplified by PCR using Phusion DNA polymerase (Finnzymes). The
reactions were performed following manufacture's protocol with Phusion HF buffer and 5% DMSO. Primers were designed as
follows: 5'-[…]-3' (BamHI site underlined) and a reverse primer, 5'-
-3' (EcoRI site underlined). The resultant product was digested with
BamHI and EcoRI and subcloned into BamHI-EcoRI sites of pGex-KTO. Confirmed PCR fidelity by sequencing.
Hck SH3 domain preparation. The hck SH3 domain was amplified by PCR using Phusion DNA polymerase (Finnzymes). The
Lyn SH3 domain preparation. The lyn SH3 domain was amplified by PCR using Phusion DNA polymerase (Finnzymes). The […]
assessed by SDS-PAGE using 12% Bis-Tris gels (Invitrogen). […]
concentrated, and aliquoted for storage at –80 °C. Concentration was determined using the absorbance at 280 nm (NanoDrop, […]

Yes SH3 domain = target: T2, Yes SH3 domain (Homo sapiens, UniProt P07947); test: ITC binding to Yes SH3 domain; details: Yes SH3, ITC
T2 construct: fyn, yes, lck, and src SH3 protein domains were prepared following published procedures; made in house
T2 sequence (P07947 91-152 limits assumed): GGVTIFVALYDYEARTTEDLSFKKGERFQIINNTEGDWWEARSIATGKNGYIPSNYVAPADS
Protocol: All chemical reagents were purchased from Sigma-Aldrich and were used without further purification.
Peptide synthesis. All peptides were synthesized manually or with an AAPPTEC APEX 396 Automated Multipeptide Synthesizer using standard solid-phase Fmoc protocols.1,2 Peptides were prepared as C-terminal amides using Rink amide MBHA resin (AAPPTEC) and were acetylated at the N-terminus prior to cleavage from the resin. Peptides and metallopeptides were purified by reverse-phase HPLC.
HPLC separation. Reverse-phase HPLC was performed on a Shimadzu CBM-20A instrument with Phenomenex Jupiter 4μ Proteo 90A (250 × 15 mm preparative) and Phenomenex Jupiter 4μ Proteo 90A (250 × 4.6 mm analytical) columns. The columns were eluted with a gradient of acetonitrile in water (10-90%) (flow rates of 8 mL/min and 1 mL/min for preparative and analytical columns, respectively). Trifluoroacetic acid (0.1%) was added to all eluents.
FPLC separation. Analytical FPLC was performed on an ÄKTA instrument with Superdex Peptide PE 7.5/300 column. The column was equilibrated with buffer (150 mM NaCl, 50 mM Tris, pH 7.0) at flow rate of 0.2 mL/min.
ITC analysis. ITC experiments were carried out on a VP-ITC instrument (MicroCal) at 25 °C. Titrations of 275 μM peptide into 18 μM SH3 domain proteins were used for all titrations, except for the titration of S2ERh into Lyn SH3 domain, where the lower concentrations of 69 µM S2ERh peptide and 4 µM Lyn SH3 were used to attain a c-value for the titration within the accepted limts for ITC experiments ([…]).3
Heats of dilutions were measured independently for each experiment by titrating 275 μM peptide into buffer (20 mM phosphate buffer, pH 7, 150 mM NaCl, 1 mM EDTA). All experimental data were fitted using a one set of sites binding model in Origin software (MicroCal) except for the data with Hck SH3 domain. With Hck only, the non-peptide specific binding of dirhodium tetraacetate to Hck SH3 domain could not be treated as negligible, despite the very weak interaction (88 µM), due to the larger enthalpy contribution observed for non-specific binding to this SH3 domain, so the titrations of peptide into Hck were fitted using a 2 set of sites binding model where the stoichiometry for the second set of sites was fixed at 2.0. […]
Mass spectrometry. ESI-MS was performed on a Bruker Daltonics micrOTOF instrument.
Known compounds and proteins. Several metallopeptides (S2ERh, L3ERh, R5ERh, and 13DRh) were reported previously and were prepared by known protocols;4 alkyne-diazo 3,5 3-azido-7-hydroxycoumarin6 were synthesized following reported procedures; fyn, yes, lck, and src SH3 protein domains were prepared following published procedures.5 Abl, hck, and lyn SH3 domain plasmids were adapted from the previously reported genes;7 the gene templates were obtained from Addgene, ID

Row | Substance | pKd (Lyn SH3 H96A mutant) | pKd (Yes SH3 domain; 25 °C, read-out: SH3 Kd) | Stoichiometry (Yes SH3 domain) | -TΔS (Yes SH3 domain; 25 °C) [kJ/mol] | ΔG (Yes SH3 domain; 25 °C) [kJ/mol] | ΔH (Yes SH3 domain; 25 °C) [kJ/mol]
1 | AcVELARRPLPPLPN-NH2 (Ac-VELARRPLPPLPN-NH2; also: Glu2 side-chain carboxylate bound to Rh2(OAc)3) [S2E^Rh, rhodium(II) metallopeptide made from S2E peptide (Ac…-NH2) and Rh2(tfa)(OAc)3] | 7.41 | 6.21 |  |  |  | 
2 | AcVELARRPLPPLPN-NH2 [S2E^Rh] |  |  | 0.79 | 38.1 | -35.6 | -73.6
